Source: patent publication US9403850B2, “Beta-lactamase inhibitors” (priority 2013, dated 2016)
pIC50: −log10 of the molar value.

Legend:
VIM-2 = molecular target: T1, VIM-2 (Escherichia coli, UniProt Q5U7L7); experiment: β-Lactamase enzyme inhibition assay, VIM-2 (nitrocefin substrate); type: biochemical; conditions: nitrocefin substrate 100 μM, 15 min preincubation at 37° C.; read-out: IC50, Class B VIM-2
T1 construct: made in house; host or cells: E. coli BL21(DE3)
Protocol: For Vim-2 metallo β-lactamase, the procedure was identical with the following exceptions, first the protein was not pH adjusted to pH 5 with 50 mM sodium acetate, second, the chromatography step was changed to a 5 ml Q sepharose anion exchange column pre-equilibrated with 50 mM Hepes pH 7.5, and elution of the protein was achieved by a linear gradient of NaCl (0-600 mM). Finally, the VIM-2 purification required a second run (3rd step) on the Q sepharose anion exchange column to achieve acceptable purity (>90%).
An equal volume of diluted enzyme stock was added, and the plates were incubated at 37° C. for 15 min. Nitrocefin was used as substrate for p99 AmpC, VIM-2 and OXA-1 and dispensed into each well at a final concentration of 100 μM. Absorbance at 486 nm was immediately monitored for 10 min using a Biotek Powerwave XS2 microplate spectrophotometer using the GEN5 softweare package (Biotek Instruments, Winooski Vt.). In an analogous fashion, imipenem was used as substrate for Kpc-2 and Cefotaxime was used for SHV-5, while changes in absorbance upon hydrolysis of the β-lactam ring were monitored at 300 nm and 260 nm respectively in UV-transparent 96-well microtiter assay plates. Maximum rates of hydrolysis were compared to those in control wells (without inhibitors), and percentages of enzyme inhibition were calculated for each concentration of inhibitor. The concentration of inhibitor needed to reduce the initial rate of hydrolysis of substrate by 50% (IC50) was calculated as the residual activity of β-lactamase at 486 nm using GraFit version 7 kinetics software package (Erithacus Software, Surrey, UK).
Using the methodology described above, examples of the current invention were evaluated for their ability to inhibit β-lactamase enzymes from all four Ambler classifications (A through D). […] NT=Not tested.

[1] = tested on: E. coli ESBL4 expressing CTX-M-15; experiment: Broth microdilution MIC assay, partner ceftazidime;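 further: ceftazidime held fixed at 4 µg/mL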; type: cell-based; conditions: Escherichia coli, read-out: MIC of Exemplary Compounds in presence of fixed β-lactams, Fixed CAZ, E. coli ESBL4 CTX-M-15
[2] = tested on: E. cloacae 144200 expressing Class C P99 AmpC; experiment: Broth microdilution MIC assay, partner ceftazidime; type: cell-based; conditions: for MIC: Enterobacter cloacae, read-out: MIC of Exemplary Compounds in presence of fixed β-lactams, Fixed CAZ, E. cl. 144200 p99 AmpC
[3] = tested on: K. pneumoniae 156319 expressing KPC-3; experiment: Broth microdilution MIC assay, partner meropenem; type: cell-based; conditions: Klebsiella pneumoniae, read-out: MIC of Exemplary Compounds in presence of fixed β-lactams, Fixed Mero, K.P. 156319 KPC-3
[4] = tested on: P. aeruginosa Ps296 expressing VIM-2; experiment: Broth microdilution MIC assay, partner meropenem; type: cell-based; conditions: Pseudomonas aeruginosa, read-out: MIC of Exemplary Compounds in presence of fixed β-lactams, Fixed Mero, P. aerug. Ps296 VIM-2
[5] = tested on: K. pneumoniae A-1797 expressing KPC-2 and VIM-4; experiment: Broth microdilution MIC assay, partner meropenem; type: cell-based; conditions: Klebsiella pneumoniae, read-out: MIC of Exemplary Compounds in presence of fixed β-lactams, Fixed Mero, K.P. A-1797 KPC-2 VIM-4
[6] = tested on: S. aureus MSSA-7 producing penicillinase PC-1; experiment: Broth microdilution MIC assay, partner piperacillin; type: cell-based; conditions: Staphylococcus aureus, fixed piperacillin 4 μg/mL, read-out: MIC of Exemplary Compounds in presence of fixed β-lactams, Fixed Pip, S. aureus MSSA-7 PC-1

SMILES	pIC50 (VIM-2)	MIC [1]	MIC [2]	MIC [3]	MIC [4]	MIC [5]	MIC [6]	MIC of Exemplary Compounds in presence of fixed β-lactams, Fixed CAZ, E. cl. 144200 p99 AmpC ([2]; fixed ceftazidime 4 μg/mL)
O=C(N[C@H]1Cc2cccc(C(=O)O)c2OB1O)c1cnc2[nH]ccc2c1 [Example 35, (R)-2-Hydroxy-3-[(1H-pyrrolo[2,3-b]pyridine-5-carbonyl)-amino]-3,4-dihydro-2H-benzo[e][1,2]oxaborinine-8-carboxylic acid]	6.00 to 7.00	< 4 µg/mL	< 4 µg/mL	< 4 µg/mL	< 4 µg/mL	> 32 µg/mL	< 4 µg/mL	
N=C(N)N1Cc2ccc(CC(=O)N[C@H]3Cc4cccc(C(=O)O)c4OB3O)cc2C1 [Example 37, (3R)-3-[[2-(2-carbamimidoylisoindolin-5-yl)acetyl]amino]-2-hydroxy-3,4-dihydro-1,2-benzoxaborinine-8-carboxylic acid]	6.00 to 7.00	< 4 µg/mL	< 4 µg/mL	< 4 µg/mL	< 4 µg/mL	> 32 µg/mL	< 4 µg/mL	
O=C(Cc1ccc(O)c(O)c1)N[C@H]1Cc2cccc(C(=O)O)c2OB1O [Example 38, (R)-3-(2-(3,4-dihydroxyphenyl)acetamido)-2-hydroxy-3,4-dihydro-2H-benzo[e][1,2]oxaborinine-8-carboxylic acid]	6.00 to 7.00	< 4 µg/mL	< 4 µg/mL	< 4 µg/mL	8 to 32 µg/mL	8 to 32 µg/mL	< 4 µg/mL	
O=C(N[C@H]1Cc2cccc(C(=O)O)c2OB1O)c1ccc(O)c(O)c1 [Example 39, (R)-3-(3,4-dihydroxybenzamido)-2-hydroxy-3,4-dihydro-2H-benzo[e][1,2]oxaborinine-8-carboxylic acid]	6.00 to 7.00	< 4 µg/mL	< 4 µg/mL	< 4 µg/mL	8 to 32 µg/mL	8 to 32 µg/mL	8 to 32 µg/mL	
NCCOc1ccc(C(=O)N[C@H]2Cc3cccc(C(=O)O)c3OB2O)cc1O [Example 40, (R)-3-(4-(2-aminoethoxy)-3-hydroxybenzamido)-2-hydroxy-3,4-dihydro-2H-benzo[e][1,2]oxaborinine-8-carboxylic acid]	> 7.00	< 4 µg/mL	< 4 µg/mL	< 4 µg/mL	< 4 µg/mL	< 4 µg/mL	< 4 µg/mL	
NCCn1ccc2ccc(C(=O)N[C@H]3Cc4cccc(C(=O)O)c4OB3O)cc21 [Example 41, (R)-3-{[1-(2-Amino-ethyl)-1H-indole-6-carbonyl]-amino}-2-hydroxy-3,4-dihydro-2H-benzo[e][1,2]oxaborinine-8-carboxylic acid]	> 7.00	< 4 µg/mL	< 4 µg/mL	> 32 µg/mL	8 to 32 µg/mL	< 4 µg/mL	< 4 µg/mL	
NCCn1ccc2c(C(=O)N[C@H]3Cc4cccc(C(=O)O)c4OB3O)cccc21 [Example 42, (R)-3-{[1-(2-Amino-ethyl)-1H-indole-4-carbonyl]-amino}-2-hydroxy-3,4-dihydro-2H-benzo[e][1,2]oxaborinine-8-carboxylic acid]	6.00 to 7.00	< 4 µg/mL	< 4 µg/mL	> 32 µg/mL	< 4 µg/mL	8 to 32 µg/mL	< 4 µg/mL	
Cn1ccc2ccc(C(=O)N[C@H]3Cc4cccc(C(=O)O)c4OB3O)cc21 [Example 43, (R)-2-Hydroxy-3-[(1-methyl-1H-indole-6-carbonyl)-amino]-3,4-dihydro-2H-benzo[e][1,2]oxaborinine-8-carboxylic acid]	6.00 to 7.00	< 4 µg/mL	< 4 µg/mL	> 32 µg/mL	> 32 µg/mL	> 32 µg/mL	< 4 µg/mL	
NCc1cc(CN)cc(C(=O)N[C@H]2Cc3cccc(C(=O)O)c3OB2O)c1 [Example 44, (R)-3-(3,5-bis(aminomethyl)benzamido)-2-hydroxy-3,4-dihydro-2H-benzo[e][1,2]oxaborinine-8-carboxylic acid]	5.00 to 6.00	8 to 32 µg/mL		> 32 µg/mL	> 32 µg/mL	> 32 µg/mL	> 32 µg/mL	A (A represents an MIC of the fixed β-lactam antibiotic in the presence of >32 μg/mL of a β-lactamase inhibitor of exemplary compounds)
N=C(N)NCc1cc(CNC(=N)N)cc(C(=O)N[C@H]2Cc3cccc(C(=O)O)c3OB2O)c1 [Example 45, (R)-3-(3,5-bis(guanidinomethyl)benzamido)-2-hydroxy-3,4-dihydro-2H-benzo[e][1,2]oxaborinine-8-carboxylic acid]	> 7.00	< 4 µg/mL	< 4 µg/mL	< 4 µg/mL	< 4 µg/mL	< 4 µg/mL	> 32 µg/mL	
O=C(Cc1ccc2cc[nH]c2c1)N[C@H]1Cc2cccc(C(=O)O)c2OB1O [Example 46, (R)-2-Hydroxy-3-(2-1H-indol-6-yl-acetylamino)-3,4-dihydro-2H-benzo[e][1,2]oxaborinine-8-carboxylic acid]	> 7.00	< 4 µg/mL	< 4 µg/mL	< 4 µg/mL	< 4 µg/mL	< 4 µg/mL	8 to 32 µg/mL	
O=C(N[C@H]1Cc2cccc(C(=O)O)c2OB1O)c1ccc(-c2ncc[nH]2)cc1 [Example 47, (R)-2-Hydroxy-3-[4-(1H-imidazol-2-yl)-benzoylamino]-3,4-dihydro-2H-benzo[e][1,2]oxaborinine-8-carboxylic acid]	6.00 to 7.00	< 4 µg/mL	< 4 µg/mL	< 4 µg/mL	8 to 32 µg/mL	> 32 µg/mL	< 4 µg/mL	
CN1Cc2ccc(CC(=O)N[C@H]3Cc4cccc(C(=O)O)c4OB3O)cc2C1 [Example 48, (R)-2-Hydroxy-3-[2-(2-methyl-2,3-dihydro-1H-isoindol-5-yl)-acetylamino]-3,4-dihydro-2H-benzo[e][1,2]oxaborinine-8-carboxylic acid]	> 7.00	< 4 µg/mL	< 4 µg/mL	< 4 µg/mL	< 4 µg/mL	< 4 µg/mL	< 4 µg/mL	
NCCN1Cc2ccc(CC(=O)N[C@H]3Cc4cccc(C(=O)O)c4OB3O)cc2C1 [Example 49, (R)-3-{2-[2-(2-Amino-ethyl)-2,3-dihydro-1H-isoindol-5-yl]-acetylamino}-2-hydroxy-3,4-dihydro-2H-benzo[e][1,2]oxaborinine-8-carboxylic acid]	6.00 to 7.00	< 4 µg/mL	< 4 µg/mL	< 4 µg/mL	< 4 µg/mL	> 32 µg/mL	< 4 µg/mL	
O=C(N[C@H]1Cc2cccc(C(=O)O)c2OB1O)c1cnc2c(c1)CNC2 [Example 50, (3R)-3-(6,7-dihydro-5H-pyrrolo[3,4-b]pyridine-3-carbonylamino)-2-hydroxy-3,4-dihydro-1,2-benzoxaborinine-8-carboxylic acid]	6.00 to 7.00	< 4 µg/mL	< 4 µg/mL	< 4 µg/mL	< 4 µg/mL	> 32 µg/mL	< 4 µg/mL	
O=C(Cc1ccc2c(c1)CNCC2)N[C@H]1Cc2cccc(C(=O)O)c2OB1O [Example 51, (R)-2-Hydroxy-3-(2-1,2,3,4-tetrahydro-isoquinolin-7-yl-acetylamino)-3,4-dihydro-2H-benzo[e][1,2]oxaborinine-8-carboxylic acid]	> 7.00	< 4 µg/mL	< 4 µg/mL	< 4 µg/mL	< 4 µg/mL	< 4 µg/mL	< 4 µg/mL	
O=C(N[C@H]1Cc2cccc(C(=O)O)c2OB1O)c1cnco1 [Example 52, (R)-2-Hydroxy-3-[(oxazole-5-carbonyl)-amino]-3,4-dihydro-2H-benzo[e][1,2]oxaborinine-8-carboxylic acid]	6.00 to 7.00	< 4 µg/mL	< 4 µg/mL	< 4 µg/mL	8 to 32 µg/mL	> 32 µg/mL	< 4 µg/mL	
